Data on six molecules can be found in publication PMC12412453 (Toxicology, 2021).

The term viability denotes a read-out of living cells in per cent, often relative to untreated cells. A low value points to a greater loss of cells. As a reminder, the cell viability is the share of living cells, or the viability signal relative to a control.

The conditions of data set [1]: reported findings; ref References column of Table 1; cited from earlier work.
Data set [2] deals with primary macaque hepatocytes (PMHs). Briefly: Cytotoxicity by ATP assay. The conditions noted are these: for Cytotoxicity / Max. con.: PMH, 24-h treatment; for Max. con.: maximum concentration.
Data set [3] deals with primary human hepatocytes (PHHs). The note with it: cited from earlier work.
Data set [4] shares this test system. The note with it: cited from earlier work; for Cytotoxicity: ATP assay, 24-h treatment.
The conditions of data set [5]: cited from earlier work.
In data set [6] the test system is primary macaque hepatocytes (PMHs). The note with it: rhesus macaque, 24 h.
The subject of data set [7] is peripheral blood and bone marrow of rhesus macaques. The note with it: single and repeated administration, ref Hotchkiss et al., 2008; cited from earlier work.
Data set [8] in a line: Cytotoxicity by ATP assay. The conditions noted are these: rhesus macaque.
For data set [9], the system named is primary macaque hepatocytes (PMHs). Briefly: CometChip assay. The note with it: for BMDU/BMDL / DNA damage (ratio of %DNA in tail at highest concentration to vehicle control) / LEC (lowest effective concentration) / BMDL50–BMDU50 / Potency ranking: PMH; for BMD50: PMH CometChip data, PROAST exponential model; for DNA damage (ratio of %DNA in tail at highest concentration to vehicle control) / LEC (lowest effective concentration): 24-h treatment; for LEC (lowest effective concentration): lowest concentration positive in comet assay; for BMDL50–BMDU50: 90 % confidence interval of BMD50; for Potency ranking: rank by BMD50 among nine positive compounds.

The subject of data set [10] is peripheral blood lymphocytes of male rhesus macaques. The note with it: single dose of 50 mg/kg, ref Dobrovolsky et al., 2009; cited from earlier work.
For data set [11], the system named is primary macaque hepatocytes (PMHs). The conditions noted are these: rhesus macaque, 24 h. The source holds these as a separate data set.
The next data set concerns Vero cells. The conditions noted are these: ref Gomes et al., 2021; cited from earlier work.
The subject of data set [12] is bone marrow of rhesus macaques. The conditions noted are these: ref Rao et al., 2005; cited from earlier work.
Setting [13] is: PHH CometChip data reanalyzed using PROAST, ref Seo et al., 2020.
The mark [14] stands for this setting: PHH, 90 % confidence interval of BMD50, ref Seo et al., 2020.
Setting [15] is: PHH, rank by BMD50 among nine positive compounds, ref Seo et al., 2020.
Setting [16] is: PHH, maximum concentration, ref Seo et al., 2020.
[17] abbreviates: reported findings, ref References column of Table 1.
Setting [18] is: PHH, lowest concentration positive in comet assay, ref Seo et al., 2020.

“And” between values parts separate entries of the source, which are not always exact repeats. Equal values may be shown once. Read-outs that look alike come from different tables or passages of the source.

Take `c1ccc2c(c1)cc1ccc3cccc4ccc2c1c34` [B[a]P, benzo[a]pyrene]: the “Genotoxicity assay findings in vitro” value in data set [1] was “(+) for MLA, CA, MN, Pig-a, comet, Hprt, and UDS”. In addition, the Cytotoxicity entry is on record as “+ (11–30 %)” in [2] (ATP assay) and “+ (11–30 %)” in data set [4] (PHH, ref Seo et al., 2020). In addition, the BMD50 in data set [3] (setting [13]) is 9.2 µM. In [3] (setting [14]), the “BMDL50–BMDU50” value is 5.2 to 16.3 µM. Further, in data set [3] (setting [15]), the Potency ranking is 5. Further, the Max. con. in data set [4] (setting [16]) and in data set [6] was 100 µM in each case. In addition, in data set [5] (setting [17]), the “Genotoxicity assay findings in vivo” value was “(+) for comet, MN, Pig-a and gene mutations”.

In the case of `O=P1(N(CCCl)CCCl)NCCCO1` (stereo not drawn) [CPA, cyclophosphamide], in data set [7], the micronucleated reticulocytes entry is on record as “significantly increased”. The results for the Max. con. in data set [2] and in [4] (setting [16]) were 5000 µM and 10,000 μM, respectively. The Cytotoxicity result in data set [2] (ATP assay) is “+++ (> 50 %)”; in data set [4] (PHH, ref Seo et al., 2020), “+ (11–30 %)”. Also, the viability at 24 h, 2500 µM in [8] turned out to be 50%. The BMD50 in data set [3] (setting [13]) was 248.2 µM; in [9], 253 µM and 253.8 µM. Further, the “BMDL50–BMDU50” value in [3] (setting [14]) is 135 to 437 µM; in data set [9] it was 165 to 372 µM. In addition, the Potency ranking is 8 in data set [3] (setting [15]) and 7 in data set [9]. For the same molecule, the “LEC (lowest effective concentration)” value was 1768 µM in [3] (setting [18]) and 937.5 µM in data set [9]. Further, the BMDU/BMDL is reported as 3.2 in [3] (PHH, ref Seo et al., 2020) and 2.3 in [9]. In addition, the “DNA damage (ratio of %DNA in tail at highest concentration to vehicle control)” value in [3] (PHH, ref Seo et al., 2020) is “++ (2 < ratio ≤ 5)”; in data set [9], “+++ (the ratio > 5)”. For the same molecule, in [4] (PHHs, 10,000 μM, ref Seo et al., 2020), the cell viability is 88%. Moreover, in [5] (setting [17]), the “Genotoxicity assay findings in vivo” value was “(+) for CA, MN, Pig-a, TG, and comet”. Moreover, the “fold increase in % tail DNA (DNA damage) compared to the vehicle control” value in [9] (PMHs, highest acceptable concentration, range given for four compounds together) was 6.1–8.1 fold. In [9] (comet assay LEC, PHH vs PMH), the “LEC fold higher in PHHs than in PMHs” value stood at 2 fold.

Take `CCN(N=O)C(N)=O` [ENU, N-ethyl-N-nitrosourea]: the “Genotoxicity assay findings in vitro” value in [1] was “(+) for MLA, CA, MN, Pig-a, Hprt, comet, and UDS”. For the same molecule, the Max. con. in [2] and in [4] (setting [16]) was 3200 µM throughout. In addition, the Cytotoxicity entry in [2] (ATP assay) is recorded as “+ (11–30 %)”; in [4] (PHH, ref Seo et al., 2020), “− (cytotoxicity of 0–10 %)”. For the same molecule, the “cytotoxic effects (in words)” value in [2] (PMHs, ATP assay, 24-h exposure) was “cytotoxic effects over the same range of concentrations, but only in PMHs”. The BMD50 is 47.3 µM in [3] (setting [13]) and 683 µM in [9]. Further, the “BMDL50–BMDU50” value was 25.3 to 83.5 µM in data set [3] (setting [14]) and 439 to 1030 µM in data set [9]. The Potency ranking in [3] (setting [15]) is 7; in data set [9] it was 8. In addition, the “LEC (lowest effective concentration)” value is 800 µM in data set [3] (setting [18]) and 2400 µM in data set [9]. The BMDU/BMDL is recorded as 3.3 in [3] (PHH, ref Seo et al., 2020) and 2.3 in data set [9]. For the same molecule, the “DNA damage (ratio of %DNA in tail at highest concentration to vehicle control)” value in data set [3] (PHH, ref Seo et al., 2020) is on record as “+++ (the ratio > 5)”; in data set [9], “+++ (the ratio > 5)”. Further, in data set [5] (setting [17]), the “Genotoxicity assay findings in vivo” value was “(+) for CA, MN, Pig-a, TG, comet”. Besides, the “BMD50 fold higher in PMHs than in PHHs (lower in PHHs)” value in data set [9] (CometChip BMD50, PMH vs PHH) was 8–22 fold. Also, the “Pig-a and Hprt mutant frequencies” value in data set [10] is “significantly increased”.

For the molecule `COS(C)(=O)=O` [MMS, methyl methanesulfonate], in [3], the BMD50 is 1.0 µM, the “BMDL50–BMDU50” value is 0.5 to 1.9 µM, the BMDU/BMDL is on record as 3.5 and the “LEC (lowest effective concentration)” value is 62.5 µM. In addition, the Potency ranking in data set [3] was 3. For the same molecule, the Max. con. in data set [4] is 500 µM. The “Genotoxicity assay findings in vivo” value in data set [5] (in vivo) is listed as “(+) for CA, MN, UDS, Pig-a, TG, comet”. Also, in data set [11], the “BMDL50–BMDU50” value is 14.2 to 33.7 µM, the BMDU/BMDL is given as 2.4, the “LEC (lowest effective concentration)” value worked out at 125 µM and the Potency ranking is reported as 6. Further, the Max. con. in data set [6] was 500 µM.

Turning to `Cc1c(N(C)CS(=O)(=O)[O-])c(=O)n(-c2ccccc2)n1C.[Na+]` [dipyrone], the “DNA damage by comet assay” value in the data set with Vero cells is “significant increases in DNA damage”.

For `S=P(N1CC1)(N1CC1)N1CC1` [thiotepa], the “chromosomal aberrations in bone marrow” value in [12] was “induced chromosomal aberrations”.
